Measured values published in patent US10105350B2, “Cosmetic preservatives as therapeutic corneoscleral tissue cross-linking agents” (THE TRUSTEES OF COLUMBIA UNIVERSITY IN THE CITY OF NEW YORK, priority 2014, dated 2018).
Where two headings read alike, the source gives them in different places.

Key:
[1] = cross-linking (gel formation) with polyallylamine (PAA) hydrogel model system; settings: with PAA at 37° C. and pH 7.4 phosphate buffered solution
From the text: Shown in Table 1 below are the results from a parallel study using a hydrogel functionalized amine cross-linking system (polyallylamine, or “PAA”) previously published for reactions using nitroalcohols (NAs). Li et al., “Mechanistic and catalytic studies of β-nitroalcohol crosslinking with polyamine,” J Appl Polym Sci. 2013; 128:3696-3701. The Table summarizes the results obtained in comparison studies using three of the higher order nitroalcohols previously reported (the nitrotriol HNPD, the nitrodiol MNPD, and the brominated nitrodiol known as Bronopol). The cross-linking efficacy of these nitroalcohol compounds were compared to two of the instantly disclosed formaldehyde releasing agents (diazolidinyl urea (DAU) and imidazolidinyl urea (IMU)). The time to gel formation indicates cross-linking efficacy in this system.

porcine scleral tissue = experiment: scleral tissue cross-linking of cut porcine scleral pieces, shift in Tm by DSC
Experimental: Equatorial scleral strips approximately 6 mm×40 mm in size were obtained from multiple eyes. These strips were submerged in DPBS solution containing 1 mM EDTA to inactivate native collagenases and to prevent tissue dehydration during sample preparation. Each strip was further cut into smaller 4 mm×3 mm pieces. The scleral pieces were individually transferred to a 24 well plate and were incubated in 1 ml of cross-linking solution in 0.1M NaHCO3 buffer at either pH 8.5 or 7.4 for 30 mins at 25° C. without refreshing the solution. […] Negative controls were treated identically with vehicle. Post-treatment, all solutions were aspirated and samples were washed twice using DPBS to remove remnant cross-linking solution before being analyzed by DSC. A minimum of three independent determinations were carried out for each condition using scleral pieces originating from different porcine globes.
(§1) Thermal denaturation temperature (Tm) of all samples was measured using a Perkin-Elmer DSC 6000 Autosampler (Waltham, Mass.). Tissue samples were carefully blotted in a standardized, repetitive manner to remove excess solution/DPBS and transferred to pre-weighed 50 ul aluminum pans. The pans were immediately hermetically sealed using a DSC pan sealing press, which is used to prevent tissue dehydration due to evaporative losses. DSC scans were run using Pyris software (version 11.0) from 40° C. to 75° C. at a rate of 1° C./min and denaturation curves representing differential heat flow over time were recorded. DSC heat flow endotherm data was analyzed using the Pyris data analysis peak search function using a calculation limit of ±0.3° C. from the apparent thermal denaturation peak.
Conversely, scleral samples were subjected to non-paired t-tests assuming equal variance of data. […] All ΔTm values are reported in the form of mean value followed by standard error.

Salmonella = settings: Ames, micronucleus and other assays as per footnotes; cited from earlier work
rat = settings: cited from earlier work
[2] = quantitative determination of formaldehyde release by 13C-NMR; type: physicochemical; settings: pH 7.4 phosphate buffer, releaser 1.5 M; for Concentration of formaldehyde (M)a: free formaldehyde after 30 min at 37° C.; for Concentration of formaldehyde (M)b: free formaldehyde after 1 hour at 37° C.
Experimental: In the study corresponding with Table 2, NMR samples were prepared in NMR tubes as follows: X mg of formaldehyde-releaser, 500 ul of phosphate buffer (pH 7.4), and 500 ul of a solution of acetonitrile in D2O as internal standard (0.2M). […]. For each spectrum, the area of the formaldehyde signal at 82.5 ppm was compared with that of the acetonitrile signal at 1.3 ppm (internal standard).
• Concentration of formaldehyde-releasing agent (FAR), including nitroalcohols is 1.5 M. ^aConcentration of free formaldehyde (FA): after the sample was incubated in a water bath at 37° C. for 30 min. ^bConcentration of free formaldehyde (FA): after the sample was incubated in a water bath at 37° C. for 1 hour.

[3] = from literature registry; cited from earlier work
mouse = settings: in vivo; cited from earlier work
[4] = tested on: human skin fibroblasts (HSFs); settings: 24 hrs exposure, 48 hr recovery
Experimental: Healthy human skin fibroblasts (HSFs) from ATCC (Manassas, Va.) were cultured in dermal cell basal media (ATCC) using a serum-free fibroblast growth kit provided by the company (ascorbic acid, EGF/TGF-β1, glutamine, hydrocortisone, insulin and FB growth supplements). Cells were grown in 5% CO2 and 95% ambient air at 37° C. until confluent. Once confluent, the cells were detached and seeded into 24 well plates at a density of 5×10^4 cells/well and were once again allowed to reach confluence. Next, cells were treated with FAR solutions over a range of concentrations (0.001 mM-5 mM) for 24 hrs. Following cross-linking exposure, all cell media, including FAR solution, was aspirated and each well was rinsed once with DPBS. Fresh media was then reintroduced and the cells were allowed to recover for 48 hrs. Subsequent to cell recovery, cell toxicity was assessed using a modified version of the trypan blue staining protocol. To that end, all culture media was aspirated and each well was rinsed with DPBS. Next, 0.4% trypan blue solution (Gibco, Grand Island, N.Y., USA) was added to each well for 3 minutes at 25° C. The staining solution was then aspirated and cells were washed twice with DPBS. Finally, extent of trypan blue staining and morphology of cells was visualized using an inverted microscope (Fisher Scientific Cat#12-560-45).
Planar cell culture experiments using Human Skin Fibroblasts (HSFs) were conducted to determine the toxicity thresholds of the FARs. The toxicity threshold was taken to be the highest concentration in mM at which all cells were alive following a 24 hour exposure to the FAR and a 48 hour recovery period.

[5] = tested on: intact cadaveric rabbit cornea; experiment: ex vivo rabbit corneal cross-linking simulation setup, shift in thermal denaturation temperature (Tm) by DSC; settings: for ΔTm (shift in denaturation temperature of corneal tissue): Second Experimental Details, 30 mins, mean ± standard error; for cross-linking efficacy compared with nitroalcohol NP (250 mM, 60 minutes): FIG. 2, half of maximum allowed concentration (DAU 9 mM, SHMG 18.5 mM, DMDM 16 mM), 30 minutes
Experimental: 0.5% proparacaine was applied prior to the cross-linking solution. A cross-linking solution containing the formaldehyde releasing agent was then administered via a corneal reservoir for 30 minutes in 0.1M NaHCO3 at either pH 7.4 or 8.5. The epithelium was left intact. The control contralateral eye was treated identically with vehicle.
Effectiveness of cross-linking was based on shifts in thermal denaturation temperature (Tm) as measured by differential scanning calorimetry (DSC) (Perkin-Elmer DSC 6000).
Intact cadaveric rabbit heads with clear corneas were obtained fresh (within an hour of sacrifice) in adherence with the ARVO Statement For the Use of Animals in Ophthalmic and Vision Research. FAR solutions at concentrations equivalent to half the maximum allowed value (½ max) were administered in a manner designed to simulate therapeutic cross-linking in patients. For all of the corneal experiments (with the notable exception of CXL), the corneal epithelium was left intact. An 8 mm Hessburg-Barron corneal reservoir was affixed to the corneal surface using the supplied syringe vacuum. A single drop of proparacaine (0.5%) was applied to the corneal surface prior to reservoir application. A buffer solution containing 0.1M NaHCO3 at either pH 8.5 or 7.4 was used. The pH of the sample and buffer mixture was titrated to the desired pH just prior to application to the eye using an appropriately concentrated HCl solution. Treatments were conducted over a 30-minute period at 25° C. with refreshing of the solution every five minutes. The control contralateral eye was treated identically with vehicle. Immediately after treatment, a central 6 mm corneal button was trephined from the treated region of each eye, was blotted on both sides using a paper towel to remove excess solution, and was analyzed using differential scanning calorimetry (DSC) [see below]. A minimum of two independent determinations were carried out for each condition described using a fresh cadaver head each time.
as §1
Due to the nature of the ex vivo cadaveric system used for corneal cross-linking, where each cadaver provided the treated eye and contralateral control, corneal samples were subjected to paired t-tests. […] All ΔTm values are reported in the form of mean value followed by standard error.

rabbit = settings: cited from earlier work
[6] = tested on: human skin fibroblasts (HSFs); settings: past cell toxicity studies; cited from earlier work
[7] = pH 8.5, half max allowed concentration, epithelium intact
[8] = pH 8.5, concentrations as low as half max allowed
[9] = pH 7.4, half max allowed concentration, epithelium intact

O=[N+]([O-])C(Br)(CO)CO [BP, 2-bromo-2-nitro-1,3-propanediol, reference compound]
Cross-linking time to gel formation [1]: 42 h
ΔTm of scleral tissue (porcine scleral tissue; 25 mM, pH 7.4, 30 mins): ~0.5 °C
ΔTm of scleral tissue (porcine scleral tissue; 25 mM, pH 8.5, 30 mins): ~0.5 °C
Mutagenicity (Salmonella): Non- mutagenic§
LD50 Oral rat (rat; oral): 180 mg/kg

N,N′-methylenebis[N-[3-(hydroxymethyl)-2,5-dioxo-4-imidazolidinyl]]-urea [IMU]
Cross-linking time to gel formation [1]: 4 h

O=[N+]([O-])C(CO)(CO)CO [HNPD, 2-hydroxymethyl-2-nitro-1,3-propanediol, reference compound]
Cross-linking time to gel formation [1]: 29 h
Concentration of formaldehyde (M)a [2]: 0.041 M
Concentration of formaldehyde (M)b [2]: 0.078 M
ΔTm of scleral tissue (porcine scleral tissue; 25 mM, pH 7.4, 30 mins): negative ΔTm
ΔTm of scleral tissue (porcine scleral tissue; 25 mM, pH 8.5, 30 mins): ~0.5 °C
Octanol Partition Coefficient (Log P) [3]: −0.115 ± 0.770
Mutagenicity (Salmonella): Non- mutagenic∥
LD50 Oral rat (rat; in vivo, po): 1,917 mg/kg
LD50 Oral mouse (mouse): 10,550 mg/kg

O=C(NCNC(=O)NC1C(=O)NC(=O)N1CO)NC1C(=O)NC(=O)N1CO (stereo not shown) [IMU, N,N′-methylenebis[N-[3-(hydroxymethyl)-2,5-dioxo-4-imidazolidinyl]]-urea]
ΔTm of scleral tissue (porcine scleral tissue; 25 mM, pH 7.4, 30 mins): 1.280±0.392 °C
ΔTm of scleral tissue (porcine scleral tissue; 25 mM, pH 8.5, 30 mins): 2.543±0.280 °C
cell state (Alive/Dead) ([4]; 0.001 mM): Alive
cell state (Alive/Dead) ([4]; 0.01 mM): Alive
cell state (Alive/Dead) ([4]; 0.1 mM): Alive
cell state (Alive/Dead) ([4]; 1 mM): Dead
cell state (Alive/Dead) ([4]; 5 mM): Dead
Octanol Partition Coefficient (Log P) [3]: −4.930 ± 0.959
LD50 Oral rat (rat; oral): LD50 Oral- rat-11,300 mg/kg
ΔTm (shift in denaturation temperature of corneal tissue) [5, 7]: −0.69±0.697 °C
negative shift in Tm of corneal tissue ([5]; pH 7.4, half max allowed concentration, epithelium intact, not significant): ~0.5 °C

CCC12COCN1COC2 [OCT, 5-Ethyl-3,7-dioxa-1-azabicyclo [3.3.0] octane]
ΔTm of scleral tissue (porcine scleral tissue; 25 mM, pH 7.4, 30 mins): ~0.5 °C
ΔTm of scleral tissue (porcine scleral tissue; 25 mM, pH 8.5, 30 mins): ~0.5 °C
LD50 Oral rat (rat; oral): > 3,600 mg/kg
LD50 Dermal rabbit (rabbit; dermal): 1,948 mg/kg
ΔTm (shift in denaturation temperature of corneal tissue) [5, 7]: 1.10±0.246 °C

O=C([O-])CNCO.[Na+] [SMG, sodium hydroxymethylglycinate]
ΔTm of scleral tissue (porcine scleral tissue; 25 mM, pH 7.4, 30 mins): 1.697±0.311 °C
ΔTm of scleral tissue (porcine scleral tissue; 25 mM, pH 8.5, 30 mins): 5.463±0.419 °C
ΔTm of scleral tissue (porcine scleral tissue; pH 7.4, 39.06 mM (max allowed), 30 mins): 0.007±0.222 °C
ΔTm of scleral tissue (porcine scleral tissue; pH 8.5, 39.06 mM (max allowed), 30 mins): 9.073±0.450 °C
scleral cross-linking effect (significance of ΔTm) (porcine scleral tissue; [8]): statistically significant cross-linking effects
cell state (Alive/Dead) ([4]; 0.001 mM): Alive
cell state (Alive/Dead) ([4]; 0.01 mM): Alive
cell state (Alive/Dead) ([4]; 0.1 mM): Alive
cell state (Alive/Dead) ([4]; 1 mM): Dead
cell state (Alive/Dead) ([4]; 5 mM): Dead
Octanol Partition Coefficient (Log P) [3]: −1.197
Mutagenicity (Salmonella): Non- mutagenic†
LD50 Oral rat (rat; in vivo, po): LD50 Oral- rat-2,100 mg/kg, LD50 Dermal-
LD50 Dermal rabbit (rabbit; in vivo, topical or ocular): rabbit->2,000 mg/kg
cross-linking efficacy compared with nitroalcohol NP (250 mM, 60 minutes) [5]: significantly more effective
ΔTm (shift in denaturation temperature of corneal tissue) [5, 9]: 2.281±0.697 °C
ΔTm (shift in denaturation temperature of corneal tissue) [5, 7]: 3.573±0.578 °C

O=CC(O)CO (stereo not shown) [Glyceraldehyde]
toxic threshold for HSFs [6]: 1 mM

CC(CO)(CO)[N+](=O)[O-] [nitro-diol, 2-methyl-2-nitro-1,3-propanediol]
Cross-linking time to gel formation [1]: 66 h
Concentration of formaldehyde (M)a [2]: 0.011 M
Concentration of formaldehyde (M)b [2]: 0.044 M

CC(CO)[N+](=O)[O-] (stereo not shown) [nitro-monol, 2-nitro-1-propanol]
Concentration of formaldehyde (M)a [2]: 0.018 M
Concentration of formaldehyde (M)b [2]: 0.014 M

CC1(C)C(=O)N(CO)C(=O)N1CO [DMDM, 1,3-dimethylol-5,5-dimethyl-hydantoin]
ΔTm of scleral tissue (porcine scleral tissue; 25 mM, pH 7.4, 30 mins): 1.693±0.033 °C
scleral cross-linking effect (significance of ΔTm) (porcine scleral tissue; pH 7.4, concentrations as low as half max allowed): statistically significant cross-linking effects
scleral cross-linking effect (significance of ΔTm) (porcine scleral tissue; [8]): statistically significant cross-linking effects
Octanol Partition Coefficient (Log P) [3]: −1.078 ± 0.654
Mutagenicity (Salmonella): Non- mutagenic‡
cross-linking efficacy compared with nitroalcohol NP (250 mM, 60 minutes) [5]: significantly more effective
ΔTm (shift in denaturation temperature of corneal tissue) [5, 9]: 2.13±0.273 °C
ΔTm (shift in denaturation temperature of corneal tissue) [5, 7]: 2.04±0.225 °C

O=CCCCC=O [glutaraldehyde]
toxic threshold for HSFs [6]: on par with bronopol

COC(=O)C1=CO[C@@H](O)[C@@H]2C(CO)=CC[C@H]12 [genipin]
toxic threshold for HSFs [6]: on par with bronopol
